Article PMC10761680 (Scientific Reports, 2024)
Like-named read-outs stand apart in the source and are kept apart here.

Experiments:
human ENPP1 [1] = molecular target: T1, human ENPP1 (Homo sapiens, UniProt P22413); experiment: Fluorescent screening of ENPP1 inhibitors using ATP as substrate and Kyoto Green as reporter; assay type: biochemical; set-up: purchased R&D systems (Minneapolis, USA); settings: 2 μM ATP, 11.5 nM ENPP1, 20 min, pH 7.4; for ENPP1 inhibition in Kyoto Green screening (in words): 10 μM or maximum soluble concentration
T1 sequence (P22413 98-925 limits assumed): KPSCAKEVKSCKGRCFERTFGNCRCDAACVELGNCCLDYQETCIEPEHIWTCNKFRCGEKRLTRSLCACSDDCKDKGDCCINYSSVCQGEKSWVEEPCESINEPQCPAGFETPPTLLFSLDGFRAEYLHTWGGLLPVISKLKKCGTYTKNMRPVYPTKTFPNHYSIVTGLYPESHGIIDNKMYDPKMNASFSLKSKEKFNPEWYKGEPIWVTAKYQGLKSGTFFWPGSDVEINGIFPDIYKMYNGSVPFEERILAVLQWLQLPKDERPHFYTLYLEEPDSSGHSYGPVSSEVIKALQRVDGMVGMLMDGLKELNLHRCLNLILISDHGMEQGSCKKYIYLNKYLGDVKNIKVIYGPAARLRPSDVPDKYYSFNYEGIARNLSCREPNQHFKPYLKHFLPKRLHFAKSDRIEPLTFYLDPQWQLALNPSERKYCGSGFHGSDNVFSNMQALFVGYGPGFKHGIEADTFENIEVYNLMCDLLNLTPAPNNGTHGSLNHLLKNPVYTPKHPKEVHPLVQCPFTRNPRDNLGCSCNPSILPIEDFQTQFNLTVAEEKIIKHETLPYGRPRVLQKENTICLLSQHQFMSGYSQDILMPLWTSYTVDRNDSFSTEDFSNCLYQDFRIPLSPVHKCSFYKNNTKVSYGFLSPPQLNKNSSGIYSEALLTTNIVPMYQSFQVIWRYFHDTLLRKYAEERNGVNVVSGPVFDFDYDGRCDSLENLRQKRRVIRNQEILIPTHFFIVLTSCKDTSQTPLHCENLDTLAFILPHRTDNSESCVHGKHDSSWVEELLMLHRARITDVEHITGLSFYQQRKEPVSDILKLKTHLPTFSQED

human soluble ENPP1 [2] = settings: substrate cGAMP, Bioluminescence (Enzyme-coupling), cited from earlier work
human ENPP1 [3] = molecular target: T1, human ENPP1; set-up: purchased R&D systems (Minneapolis, USA); method as in PMID 28011303; settings: substrate of human ENPP1, pH 9.0; cited from earlier work
[4] = pH-dependent stability of quercetin in aqueous solution (UV-visible spectrum); assay type: physicochemical; settings: 50 mM HEPES buffer (pH 7.4), 60 min, 7 µM
Experimental: page 8: 0 → 60 min 0 → 60 min Figure S7.pH -dependent stability of quercetin in aqueous solution. Time course of UV- visible spectrum (JASCO […], Japan) of quercetin ( 7 μ M) in50 m M HEPES buffer (pH 7.4) (above) or 50 mM borate buffer (pH 9.0) (below) . Inset: Absorbance at λ ma x ( 403 nm). Ratio of ethanol : buffer = 1 : 10 v/v. The buffer contain ed 10 mM NaCl, 1 mM MgCl 2, and 0.02 mM Zn(NO3)2. Measurements were performed at 25± 2 °C. S8 […]

[5] = Solubility in water (solution preparation); assay type: physicochemical
human ENPP1 [6] = molecular target: T1, human ENPP1; experiment: biochemical
human ENPP1 [7] = molecular target: T1, human ENPP1; experiment: Colorimetric UV-visible assay of ENPP1 using p-Nph-5′-TMP as chromogenic substrate; assay type: biochemical; set-up: purchased R&D systems (Minneapolis, USA)
human ENPP1 [8] = molecular target: T1, human ENPP1; experiment: Bioluminescent assay of ENPP1 using luciferin/luciferase ATP assay kit
human ENPP1 [9] = molecular target: T1, human ENPP1; experiment: Fluorescent determination of IC50/Ki using Kyoto Green (ATP hydrolysis)
human soluble ENPP1 [10] = settings: substrate p-Nph-5′-TMP, Colorimetry (p-nitrophenol), cited from earlier work; for Ki: pH 9.0; for IC50: read-out: IC50 (shown in the Ki column)
human soluble ENPP1 [11] = molecular target: human soluble ENPP1; set-up: method as in earlier work; settings: substrate ATP, Colorimetry (Molybdenum-phosphate complex), pH 9.0; cited from earlier work
human soluble ENPP1 [12] = settings: substrate ATP, Capillary Electrophoresis, pH 9.0; cited from earlier work
[13] = Kyoto Green fluorescence method, ATP, pH 7.4

SMILES: O=c1c(O)c(-c2ccc(O)cc2)oc2cc(O)cc(O)c12 [Kaempferol, 3, 4′,5,7 -tetrahydroxyflavone]
- ENPP1 inhibition in Kyoto Green screening (in words) (human ENPP1 [1]): ineffective as inhibitors

SMILES: COc1cccc2c(NCc3ccc(P(=O)(O)O)cc3)c(C#N)cnc12 [Compound 5]
- Ki (human soluble ENPP1 [2]; pH 7.4): < 2 nM

SMILES: Cc1cn([C@H]2C[C@H](O)[C@@H](COP(=O)(O)Oc3ccc([N+](=O)[O-])cc3)O2)c(=O)[nH]c1=O [p-Nph-5′-TMP, p-nitrophenyl 5′-thymidine monophosphate]
- Km (human ENPP1 [3]): 222 µM

SMILES: O=c1c(O)c(-c2ccc(O)c(O)c2)oc2cc(O)cc(O)c12 [Quercetin, 3,5,7,3′,4′-pentahydroxyflavone]
- stability in buffer [4]: highly stable
- solubility in water [5]: poor solubility in water
- Ki (human ENPP1 [6]): ~4 nM
- reduction of Kyoto Green fluorescence change (F/F0-1) compared to the control group without an inhibitor (human ENPP1 [1]; 10 μM compound): over 90%
- ENPP1 inhibition at pH 9.0 (in words) (human ENPP1 [7]; 700 nM quercetin, 0.1 mM p-Nph-5′-TMP, 50 mM borate buffer pH 9.0, 6.5 nM ENPP1, time course 60 min): capable of inhibiting ENPP1 at pH 9.0, but this effect was observed only for the first 10 min
- Ki by colorimetric method relative to Ki by Kyoto Green and commercial ATP assays (human ENPP1 [7]; p-Nph-5′-TMP versus ATP as substrate): approximately 40 fold
- Ki (human ENPP1 [7]; substrate p-Nph-5′-TMP, Colorimetry (p-nitrophenol), pH 7.4, Cheng-Prusoff, KM 222 µM): 159 ± 73 nM
- IC50 (human ENPP1 [8]): 5.5 ± 0.6 nM
- IC50 (human ENPP1 [9]): 4.5 ± 0.9 nM
- inhibitory efficiency of quercetin relative to myricetin (human ENPP1 [9]; [13]): ~ 8 folds
- inhibitory efficiency of quercetin relative to suramin (human ENPP1 [9]; [13]): ~ 188 folds

SMILES: Cc1nc2ncnn2c(N(C)C)c1Cc1cccc(N)c1 [Compound 1]
- Ki (human soluble ENPP1 [10]): 480 nM
- Ki (human soluble ENPP1 [11]): 2000 nM

SMILES: COc1ccc(NC(=O)CSc2nc3c(N)ncnc3[nH]2)cc1OC [Compound 3]
- Ki (human soluble ENPP1 [10]): 5 nM
- Ki (human soluble ENPP1 [12]): 18000 nM

SMILES: O=c1c(O)c(-c2cc(O)c(O)c(O)c2)oc2cc(O)cc(O)c12 [Myricetin, 3,5,7,3′,4′,5′-hexahydroxyflavone]
- IC50 (human soluble ENPP1 [10]; pH 7.4): 432 nM
- IC50 (human soluble ENPP1 [10]; pH 9.5): 414 nM

SMILES: O=c1c(O[C@@H]2O[C@H](CO)[C@@H](O)[C@H](O)[C@H]2O)c(-c2ccc(O)c(O)c2)oc2cc(O)cc(O)c12 [Quercetin-3-glucoside, quercetin-3-glucoside]
- ENPP1 inhibition in Kyoto Green screening (in words) (human ENPP1 [1]): did not inhibit ENPP1
- ENPP1 inhibition in Kyoto Green screening (in words) (human ENPP1 [1]; listed as quercetin glucoside): ineffective as inhibitors

SMILES: O=c1c(O)c(-c2ccc(O)cc2O)oc2cc(O)cc(O)c12 [Morin, 3,5,7,2′,4′-pentahydroxyflavone]
- ENPP1 inhibition in Kyoto Green screening (in words) (human ENPP1 [1]): ineffective as inhibitors

SMILES: CN1Cc2c(ncnc2N2CCC(C)(CNS(N)(=O)=O)CC2)NC1=O [Compound 6]
- IC50 (human soluble ENPP1 [2]; pH 8.5, read-out: IC50 (shown in the Ki column)): 3.7 nM
